{
  "source": "ChEMBL document CHEMBL5465560",
  "about": "“Selectivity Literature for EUbOPEN Chemogenomic Library” (2024)",
  "key": {"[1]": {"target": "Serine/threonine-protein kinase 26 (Homo sapiens, UniProt Q9P289)", "sequence (Q9P289 2-416 limits assumed)": "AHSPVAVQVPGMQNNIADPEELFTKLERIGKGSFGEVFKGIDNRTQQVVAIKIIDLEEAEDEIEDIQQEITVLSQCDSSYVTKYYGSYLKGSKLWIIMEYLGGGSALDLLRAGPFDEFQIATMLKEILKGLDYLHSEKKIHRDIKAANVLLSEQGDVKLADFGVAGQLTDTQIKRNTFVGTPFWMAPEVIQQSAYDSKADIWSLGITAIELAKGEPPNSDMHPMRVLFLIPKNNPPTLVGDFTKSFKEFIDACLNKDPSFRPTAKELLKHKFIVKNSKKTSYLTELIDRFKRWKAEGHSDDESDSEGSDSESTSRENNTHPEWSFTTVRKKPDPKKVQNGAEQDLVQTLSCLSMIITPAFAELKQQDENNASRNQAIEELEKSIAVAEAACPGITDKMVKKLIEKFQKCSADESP", "experiment": "Selectivity interaction (KinomeScan (DiscoverX)) EUB0000666a STK26", "settings": "at 10 µM"}, "[2]": {"target": "Hepatocyte growth factor-like protein (Homo sapiens) (UniProt P26927)", "experiment": "Selectivity interaction (KinomeScan (DiscoverX)) EUB0000666a MST1", "settings": "at 10 µM"}, "[3]": {"target": "T1, Serine/threonine-protein kinase tousled-like 1 (Homo sapiens) (UniProt Q9UKI8)", "T1 sequence (whole entry)": "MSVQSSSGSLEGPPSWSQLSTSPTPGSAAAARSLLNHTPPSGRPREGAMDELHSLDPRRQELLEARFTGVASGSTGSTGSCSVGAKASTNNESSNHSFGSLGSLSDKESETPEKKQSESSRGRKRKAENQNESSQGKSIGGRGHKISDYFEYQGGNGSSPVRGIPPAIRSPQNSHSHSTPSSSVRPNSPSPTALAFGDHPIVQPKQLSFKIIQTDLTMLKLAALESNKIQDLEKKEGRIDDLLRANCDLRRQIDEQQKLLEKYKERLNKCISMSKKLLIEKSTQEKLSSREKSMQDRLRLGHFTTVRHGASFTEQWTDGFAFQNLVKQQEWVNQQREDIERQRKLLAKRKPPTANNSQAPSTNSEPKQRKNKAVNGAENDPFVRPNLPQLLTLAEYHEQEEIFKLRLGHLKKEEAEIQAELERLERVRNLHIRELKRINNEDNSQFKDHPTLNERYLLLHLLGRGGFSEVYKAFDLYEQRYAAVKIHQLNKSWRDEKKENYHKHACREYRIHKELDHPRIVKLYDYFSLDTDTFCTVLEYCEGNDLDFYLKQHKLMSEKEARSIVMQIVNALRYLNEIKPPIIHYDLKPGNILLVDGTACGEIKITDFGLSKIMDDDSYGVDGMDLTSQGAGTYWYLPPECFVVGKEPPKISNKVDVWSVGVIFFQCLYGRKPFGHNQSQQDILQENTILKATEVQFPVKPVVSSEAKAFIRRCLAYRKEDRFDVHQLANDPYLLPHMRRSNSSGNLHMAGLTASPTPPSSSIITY", "experiment": "Selectivity interaction (ActivX KiNativ screen (kinase selectivity in THP-1 cell lysates)) EUB0000639a TLK1", "type": "subcellular", "settings": "lysate, at 0.01 µM"}, "[4]": {"target": "T2, Mitogen-activated protein kinase kinase kinase kinase 3 (Homo sapiens) (UniProt Q8IVH8)", "T2 sequence (whole entry)": "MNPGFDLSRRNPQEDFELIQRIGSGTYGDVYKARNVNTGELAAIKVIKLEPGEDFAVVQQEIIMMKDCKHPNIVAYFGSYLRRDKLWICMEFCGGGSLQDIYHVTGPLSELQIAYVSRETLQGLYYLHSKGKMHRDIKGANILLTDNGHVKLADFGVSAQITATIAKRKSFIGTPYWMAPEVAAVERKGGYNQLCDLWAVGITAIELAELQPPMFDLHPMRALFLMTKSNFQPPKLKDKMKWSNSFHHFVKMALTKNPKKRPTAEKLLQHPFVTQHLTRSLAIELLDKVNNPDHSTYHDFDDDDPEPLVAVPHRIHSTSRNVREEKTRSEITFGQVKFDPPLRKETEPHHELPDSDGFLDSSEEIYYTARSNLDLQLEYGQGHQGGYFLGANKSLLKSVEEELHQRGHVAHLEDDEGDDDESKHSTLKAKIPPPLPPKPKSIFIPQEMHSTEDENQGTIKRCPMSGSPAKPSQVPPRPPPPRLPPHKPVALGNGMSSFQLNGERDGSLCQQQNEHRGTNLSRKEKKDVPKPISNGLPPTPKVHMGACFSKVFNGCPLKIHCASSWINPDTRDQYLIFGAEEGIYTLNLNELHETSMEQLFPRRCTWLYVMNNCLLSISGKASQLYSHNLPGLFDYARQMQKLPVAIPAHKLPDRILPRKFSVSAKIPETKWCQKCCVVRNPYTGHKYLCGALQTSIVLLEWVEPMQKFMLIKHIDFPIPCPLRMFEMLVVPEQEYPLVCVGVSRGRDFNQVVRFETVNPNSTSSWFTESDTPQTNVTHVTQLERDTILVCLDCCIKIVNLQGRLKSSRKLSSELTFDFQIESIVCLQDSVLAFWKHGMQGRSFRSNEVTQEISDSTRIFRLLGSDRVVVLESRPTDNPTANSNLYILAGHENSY", "experiment": "Selectivity interaction (Ambit KINOMEscan and KiNATiv profiling in Jurkat cells) EUB0000090b MAP4K3", "type": "cell-based", "settings": "at 1 µM"}, "[5]": {"target": "T3, Serine/threonine-protein kinase STK11 (Homo sapiens) (UniProt Q15831)", "T3 sequence (whole entry)": "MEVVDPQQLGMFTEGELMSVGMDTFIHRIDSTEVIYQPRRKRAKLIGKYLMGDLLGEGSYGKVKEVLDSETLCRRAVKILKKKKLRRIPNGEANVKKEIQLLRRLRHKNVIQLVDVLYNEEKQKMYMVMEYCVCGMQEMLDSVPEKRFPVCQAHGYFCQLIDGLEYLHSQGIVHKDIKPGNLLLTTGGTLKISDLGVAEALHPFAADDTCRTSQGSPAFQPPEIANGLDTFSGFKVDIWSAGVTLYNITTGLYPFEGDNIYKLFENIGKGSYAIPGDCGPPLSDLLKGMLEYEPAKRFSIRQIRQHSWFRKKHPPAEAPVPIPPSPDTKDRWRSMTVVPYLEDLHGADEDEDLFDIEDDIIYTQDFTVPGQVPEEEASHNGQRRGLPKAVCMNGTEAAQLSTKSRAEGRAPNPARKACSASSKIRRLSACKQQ", "experiment": "Selectivity interaction (KinomeScan (DiscoverX)) EUB0000655a STK11", "settings": "at 10 µM"}, "[6]": {"target": "T1, Serine/threonine-protein kinase tousled-like 1 (Homo sapiens)", "experiment": "Selectivity interaction (KinomeScan (DiscoverX)) EUB0000607a TLK1", "settings": "at 10 µM"}},
  "data": [
    {"smiles": "O=C(NOC[C@H](O)CO)c1ccc(F)c(F)c1Nc1ccc(I)cc1F", "values": [
      {"measurement": "% of control", "setting": "[1]", "value": 77, "unit": "%"},
      {"measurement": "% of control", "setting": "[2]", "value": 100, "unit": "%"}
    ]},
    {"smiles": "CC[C@@H]1[C@H](F)C(=O)N[C@@H]1COc1nccc2cc(C(N)=O)c(OC)cc12", "note": "[ZIMLOVISERTIB]", "values": [
      {"measurement": "% of inhibition", "setting": "[3]", "value": 1.9, "unit": "%"}
    ]},
    {"smiles": "CN(C)C/C=C/C(=O)Nc1ccc(C(=O)N2CCCC(Nc3ncc(Cl)c(-c4c[nH]c5ccccc45)n3)C2)cc1", "note": "(stereo unspecified)", "values": [
      {"measurement": "% of control", "setting": "[4]", "value": 95, "unit": "%"}
    ]},
    {"smiles": "CN(C)CCOc1ccc(-c2nc(-c3ccncc3)c(-c3ccc4c(c3)CC/C4=N\\O)[nH]2)cc1", "values": [
      {"measurement": "% of control", "setting": "[5]", "value": 88, "unit": "%"}
    ]},
    {"smiles": "CNC(=O)Nc1ccc(-c2nc(N3CC4CCC(C3)O4)c3cnn(C4CCC5(CC4)OCCO5)c3n2)cc1", "values": [
      {"measurement": "% of control", "setting": "[6]", "value": 86, "unit": "%"}
    ]}
  ]
}
